Source: patent US20250195463A1, “ORGANOMETALLIC COMPLEX, CONTROLLED-RELEASE MULTI-FUNCTIONAL DRUG, PHARMACEUTICAL COMPOSITION, PROCESSES FOR THE PREPARATION THEREOF AND THEIR USE” (FACULDADE DE CIÊNCIAS DA UNIVERSIDADE DE LISBOA, priority 2022, published 2025)
Where two headings read alike, the source gives them in different places.

Tests used:
[1] = Stability in organic medium (dimethyl sulfoxide) by UV-Vis spectroscopy; type: physicochemical; settings: for Relative variation of the maximum absorbance of the π→π* transitions: band 289-300 nm (λmax in column head); for Relative variation of the maximum absorbance of the charge transfer bands: band 357-425 nm (λmax in column head)
How it was run: (§1)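 UV-Vis spectra (270-900 nm) were recorded at intervals from 0 to 24 h, at room temperature in the dark. Solvents were 100% DMSO, or 5% or 10% DMSO in DMEM depending on complex, at 7.0×10^-5 M to 3.0×10^-4 M.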

[2] = Stability in aqueous medium (dimethyl sulfoxide/Dulbecco's Modified Eagle Medium) by UV-Vis spectroscopy; type: physicochemical; settings: 5% dimethyl sulfoxide/95% Dulbecco's Modified Eagle Medium; for Relative variation of the maximum absorbance of the π→π* transitions: band 292-296 nm (λmax in column head); for Relative variation of the maximum absorbance of the charge transfer bands: band 358-400 nm (λmax in column head)
How it was run: as §1

MDA-MB-231 (FGFR−) = assay: MTT cytotoxicity assay; settings: for IC50 range in words: Example 24; for IC50: read-out: Cytotoxic activity expressed as IC50, 48 h, 37° C.
How it was run: (§2)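 Cells were exposed continuously for 48 h at 37 °C to compounds at 0.1 to 100 μM. In pH-controlled runs, RuPC1 stock was pre-incubated 48 h at pH 6.8 or 7.4, then tested at 0.1 to 50 μM. Viability was read by MTT (0.5 mg/mL, 3 h) absorbance at 570 nm versus untreated cells, with IC50 fitted.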

SK-BR-3 (FGFR+) = assay: MTT cytotoxicity assay; settings: read-out: Cytotoxic activity expressed as IC50; Table 6; SK-BR-3 (FGFR+); 48 h, 37° C.
How it was run: as §2

MDA-MB-134-VI (FGFR+) = assay: MTT cytotoxicity assay; settings: read-out: Cytotoxic activity expressed as IC50; Table 6; MDA-MB-134-VI (FGFR+); 48 h, 37° C.
How it was run: as §2

MCF-7 (FGFR−) = assay: MTT cytotoxicity assay; settings: read-out: Cytotoxic activity expressed as IC50; Table 6; MCF-7 (FGFR−); 48 h, 37° C.
How it was run: as §2

In the case of `O=C(Cc1ccccc1)C1=C[CH]([Ru-]2([PH](c3ccccc3)(c3ccccc3)c3ccccc3)[n+]3ccccc3-c3cccc[n+]32)C=C1.O=S(=O)([O-])C(F)(F)F` (stereo not drawn) [compound 9], the “Relative variation of the maximum absorbance of the π→π* transitions” value (shortened to “Relative variation … of the π→π* transitions”) ([1]; time 0 h) is reported as 0.0%, the “Relative variation of the maximum absorbance of the charge transfer bands” value ([1]; time 0 h) is reported as 0.0% and the “Relative variation … of the π→π* transitions” value ([1]; time 0.25 h) is reported as 0.0%. The “Relative variation of the maximum absorbance of the charge transfer bands” value ([1]; time 0.25 h) was 0.2%, the “Relative variation … of the π→π* transitions” value ([1]; time 0.5 h) was −0.2% and the “Relative variation of the maximum absorbance of the charge transfer bands” value ([1]; time 0.5 h) was 0.2%. For the same molecule, the “Relative variation … of the π→π* transitions” value ([1]; time 0.75 h) was −0.3%, the “Relative variation of the maximum absorbance of the charge transfer bands” value ([1]; time 0.75 h) was 0.2% and the “Relative variation … of the π→π* transitions” value ([1]; time 1 h) was −0.3%. The “Relative variation of the maximum absorbance of the charge transfer bands” value ([1]; time 1 h) was 0.3%, the “Relative variation … of the π→π* transitions” value ([1]; time 2 h) was −0.3% and the “Relative variation of the maximum absorbance of the charge transfer bands” value ([1]; time 2 h) was 0.6%. The “Relative variation … of the π→π* transitions” value ([1]; time 3 h) was −0.1%, the “Relative variation of the maximum absorbance of the charge transfer bands” value ([1]; time 3 h) was 0.9% and the “Relative variation … of the π→π* transitions” value ([1]; time 4 h) was −0.1%. For the same molecule, the “Relative variation of the maximum absorbance of the charge transfer bands” value ([1]; time 4 h) was 0.6%, the “Relative variation … of the π→π* transitions” value ([1]; time 5 h) was −0.3% and the “Relative variation of the maximum absorbance of the charge transfer bands” value ([1]; time 5 h) was 0.4%. For the same molecule, the “Relative variation … of the π→π* transitions” value ([1]; time 6 h) was −0.2%, the “Relative variation of the maximum absorbance of the charge transfer bands” value ([1]; time 6 h) was 0.7% and the “Relative variation … of the π→π* transitions” value ([1]; time 24 h) was −0.1%. For the same molecule, the “Relative variation of the maximum absorbance of the charge transfer bands” value ([1]; time 24 h) was 0.8%, the “Relative variation … of the π→π* transitions” value ([2]; time 0 h) was 0.0% and the “Relative variation of the maximum absorbance of the charge transfer bands” value ([2]; time 0 h) was 0.0%. For the same molecule, the “Relative variation … of the π→π* transitions” value ([2]; time 0.25 h) was −0.2%, the “Relative variation of the maximum absorbance of the charge transfer bands” value ([2]; time 0.25 h) was −0.7% and the “Relative variation … of the π→π* transitions” value ([2]; time 0.5 h) was −0.3%. For the same molecule, the “Relative variation of the maximum absorbance of the charge transfer bands” value ([2]; time 0.5 h) was −0.8%, the “Relative variation … of the π→π* transitions” value ([2]; time 0.75 h) was −0.5% and the “Relative variation of the maximum absorbance of the charge transfer bands” value ([2]; time 0.75 h) was −0.9%. For the same molecule, the “Relative variation … of the π→π* transitions” value ([2]; time 1 h) was −0.3%, the “Relative variation of the maximum absorbance of the charge transfer bands” value ([2]; time 1 h) was −1.0% and the “Relative variation … of the π→π* transitions” value ([2]; time 2 h) was −0.2%. For the same molecule, the “Relative variation of the maximum absorbance of the charge transfer bands” value ([2]; time 2 h) was −1.2%, the “Relative variation … of the π→π* transitions” value ([2]; time 3 h) was −0.3% and the “Relative variation of the maximum absorbance of the charge transfer bands” value ([2]; time 3 h) was −1.4%. The “Relative variation … of the π→π* transitions” value ([2]; time 4 h) was −0.4%, the “Relative variation of the maximum absorbance of the charge transfer bands” value ([2]; time 4 h) was −1.5% and the “Relative variation … of the π→π* transitions” value ([2]; time 5 h) was −0.2%. For the same molecule, the “Relative variation of the maximum absorbance of the charge transfer bands” value ([2]; time 5 h) was −1.6%, the “Relative variation … of the π→π* transitions” value ([2]; time 6 h) was −0.5% and the “Relative variation of the maximum absorbance of the charge transfer bands” value ([2]; time 6 h) was −1.7%. For the same molecule, the “Relative variation … of the π→π* transitions” value ([2]; time 24 h) was 4.5%, the “Relative variation of the maximum absorbance of the charge transfer bands” value ([2]; time 24 h) was −0.2% and the “IC50 range in words” value (MDA-MB-231 (FGFR−); MDA-MB-231) was “sub-micromolar range”. For the same molecule, the IC50 (MDA-MB-231 (FGFR−); Table 5, MDA-MB-231) was 0.31 µM.
In the case of `NNC(=O)C1=C[CH]([Ru-]2([PH](c3ccccc3)(c3ccccc3)c3ccccc3)[n+]3ccccc3-c3cccc[n+]32)C=C1.O=S(=O)([O-])C(F)(F)F` (stereo not drawn) [compound 4], the “Relative variation … of the π→π* transitions” value ([1]; time 0 h) is reported as 0.0%, the “Relative variation of the maximum absorbance of the charge transfer bands” value ([1]; time 0 h) is reported as 0.0% and the “Relative variation … of the π→π* transitions” value ([1]; time 0.25 h) is reported as 0.3%. The “Relative variation of the maximum absorbance of the charge transfer bands” value ([1]; time 0.25 h) was 0.0%, the “Relative variation … of the π→π* transitions” value ([1]; time 0.5 h) was 0.3% and the “Relative variation of the maximum absorbance of the charge transfer bands” value ([1]; time 0.5 h) was −0.1%. For the same molecule, the “Relative variation … of the π→π* transitions” value ([1]; time 0.75 h) was 0.3%, the “Relative variation of the maximum absorbance of the charge transfer bands” value ([1]; time 0.75 h) was −0.2% and the “Relative variation … of the π→π* transitions” value ([1]; time 1 h) was 0.5%. For the same molecule, the “Relative variation of the maximum absorbance of the charge transfer bands” value ([1]; time 1 h) was 0.1%, the “Relative variation … of the π→π* transitions” value ([1]; time 2 h) was 0.4% and the “Relative variation of the maximum absorbance of the charge transfer bands” value ([1]; time 2 h) was −0.2%. The “Relative variation … of the π→π* transitions” value ([1]; time 3 h) was 0.6%, the “Relative variation of the maximum absorbance of the charge transfer bands” value ([1]; time 3 h) was 0.2% and the “Relative variation … of the π→π* transitions” value ([1]; time 4 h) was 0.7%. For the same molecule, the “Relative variation of the maximum absorbance of the charge transfer bands” value ([1]; time 4 h) was 0.9%, the “Relative variation … of the π→π* transitions” value ([1]; time 5 h) was −0.3% and the “Relative variation of the maximum absorbance of the charge transfer bands” value ([1]; time 5 h) was 1.0%. For the same molecule, the “Relative variation … of the π→π* transitions” value ([1]; time 6 h) was −0.2%, the “Relative variation of the maximum absorbance of the charge transfer bands” value ([1]; time 6 h) was 0.6% and the “Relative variation … of the π→π* transitions” value ([1]; time 24 h) was −0.2%. For the same molecule, the “Relative variation of the maximum absorbance of the charge transfer bands” value ([1]; time 24 h) was 1.6%, the “Relative variation … of the π→π* transitions” value ([2]; time 0 h) was 0.0% and the “Relative variation of the maximum absorbance of the charge transfer bands” value ([2]; time 0 h) was 0.0%. For the same molecule, the “Relative variation … of the π→π* transitions” value ([2]; time 0.25 h) was 0.1%, the “Relative variation of the maximum absorbance of the charge transfer bands” value ([2]; time 0.25 h) was −0.2% and the “Relative variation … of the π→π* transitions” value ([2]; time 0.5 h) was 0.1%. For the same molecule, the “Relative variation of the maximum absorbance of the charge transfer bands” value ([2]; time 0.5 h) was −0.7%, the “Relative variation … of the π→π* transitions” value ([2]; time 0.75 h) was −0.4% and the “Relative variation of the maximum absorbance of the charge transfer bands” value ([2]; time 0.75 h) was −1.3%. For the same molecule, the “Relative variation … of the π→π* transitions” value ([2]; time 1 h) was −0.3%, the “Relative variation of the maximum absorbance of the charge transfer bands” value ([2]; time 1 h) was −0.9% and the “Relative variation … of the π→π* transitions” value ([2]; time 2 h) was −0.6%. For the same molecule, the “Relative variation of the maximum absorbance of the charge transfer bands” value ([2]; time 2 h) was −0.7%, the “Relative variation … of the π→π* transitions” value ([2]; time 3 h) was −0.9% and the “Relative variation of the maximum absorbance of the charge transfer bands” value ([2]; time 3 h) was −1.4%. For the same molecule, the “Relative variation … of the π→π* transitions” value ([2]; time 4 h) was −1.2%, the “Relative variation of the maximum absorbance of the charge transfer bands” value ([2]; time 4 h) was −0.7% and the “Relative variation … of the π→π* transitions” value ([2]; time 5 h) was −1.5%. The “Relative variation of the maximum absorbance of the charge transfer bands” value ([2]; time 5 h) was −2.1%, the “Relative variation … of the π→π* transitions” value ([2]; time 6 h) was −1.7% and the “Relative variation of the maximum absorbance of the charge transfer bands” value ([2]; time 6 h) was −2.3%. For the same molecule, the “Relative variation … of the π→π* transitions” value ([2]; time 24 h) was 0.1%, the “Relative variation of the maximum absorbance of the charge transfer bands” value ([2]; time 24 h) was 3.0% and the IC50 (SK-BR-3 (FGFR+)) was 7.5 ± 1 µM. For the same molecule, the IC50 (MDA-MB-134-VI (FGFR+)) was 7.1 ± 1.3 µM, the IC50 (MCF-7 (FGFR−)) was 5.8 ± 0.8 µM and the “IC50 range in words” value (MDA-MB-231 (FGFR−); MDA-MB-231) was “low micromolar range”. For the same molecule, the IC50 (MDA-MB-231 (FGFR−); Table 5, MDA-MB-231) was 7.1 µM and the IC50 (MDA-MB-231 (FGFR−); Table 6, MDA-MB-231 (FGFR−)) was 6.1 ± 1.3 µM.
